Measurements as given in patent US20220389500A1, “PURIFYING AND POLYMERIZING 3'-BLOCKED NUCLEOTIDES” (ILLUMINA, INC., priority 2021, published 2022).

Experiments:
Assay type in all cases: biochemical
3′-OH nucleotides [1] = test: Purification (polishing) of heated 3′-blocked nucleotides with Klenow polymerase and different templates, then 2×151 cycle sequencing on MINISEQ (FIG. 8); details: Klenow polymerase, 30 minutes at 37° C., nucleotides heated 5 hours at 55° C.
Procedure: FIG. 8 is a plot of phasing and prephasing during polymerization of 3′-blocked nucleotides that were purified using different conditions. More specifically, an aqueous solution of 3′-blocked nucleotides blocked with azidomethyl groups was heated for 5 hours at 55° C. so as to simulate nucleotide stress conditions and convert a portion of the 3′-blocked nucleotides to 3′-OH nucleotides. The resulting aqueous mixture of 3′-blocked nucleotides and 3′-OH nucleotides was purified for 30 minutes at 37° C. in a manner such as described with reference to FIGS. 1A-1B and 3, using the Klenow polymerase and different conditions, e.g., different templates, and different concentrations of templates, such as described further below. The purified 3′-blocked nucleotides then were used in a sequencing reaction, using 2×151 cycle runs on the MINISEQ® sequencing-by-synthesis instrument (Ilumina, Inc., San Diego Calif.) using the PhiX library as templates. The purified nucleotides behaved similarly in the two sequencing reads (R1 and R2). The accumulated prephasing over 150 cycles of read 1 (R1 C150% prephasing weight) and the accumulated phasing over 150 cycles of read 1 (R1 C150% phasing weight) after 3′-blocked nucleotide polymerization was measured for the purified 3′-blocked nucleotides, as well as for heated and unpurified 3′-blocked nucleotides and for unheated 3′-blocked nucleotides.
The effect of concentration of a first example template was determined. More specifically, the next data points to the right (“50 nM”) correspond to polymerization of 3′-blocked nucleotides that had been heated as indicated above and were purified using 50 nM of a 20N template of sequence 5′-NNNNNNNNNNNNNNNNNNNNCGGCCATATAACTGGTAGCTT-3′ (SEQ ID NO: 5), whereN are degenerated bases, combined in equimolar amount with a primer oligonucleotide sequence AAGCTACCAGTTATATGGCCG (SEQ ID NO: 6). […] From a comparison of the data points corresponding to different concentrations of the 20N template, it may be understood that with increased concentration of 20N template, prephasing approached a similar prephasing as for the unheated (“std”) 3′-blocked nucleotides.
Different templates were used to determine their effect on phasing and prephasing. More specifically, the next data points to the right (“4N”) correspond to polymerization of 3′-blocked nucleotides that had been heated as indicated above and were purified using 200 nM of a 4N template of sequence 5′-NNN NCGGC CAT ATA ACT GGT AGCTT-3′ (SEQ ID NO: 7) where N are degenerated bases, combined in equimolar amount with primer oligonucleotide sequence AAGCTACCAGTTATATGGCCG (SEQ ID NO: 6). […] The next data points to the right (“6N”) correspond to polymerization of 3′-blocked nucleotides that had been heated as indicated above and were purified using 200 nM of a 6N template of sequence 5′-[…]-3′ (SEQ ID NO: 8), combined in equimolar amount with primer oligonucleotide sequence AAGCTACCAGTTATATGGCCG (SEQ ID NO: 6).
The next data points to the right correspond to polymerization of 3′-blocked nucleotides that had been heated as indicated above and were purified using 200 nM of a mixture of 4 hairpin templates, each template corresponding to one base, of respective sequences GGGGGGGGGGGGCGGCCATATAACTGGTCACTCCAGTTATATGGCCG (hairpin G) (SEQ ID NO: 9), TTTTTTTTTTTTCGGCCATAT AACTGG TCACTCCAGTTATATGGCCG (hairpin T) (SEQ ID NO: 10), CCCCCCCCCCCCCGGCCATAT AACTGG TCACTCCAGTTATATGGCCG (hairpin C) (SEQ ID NO: 11), AAAAAAAAAAAACGGCCATATAACTGGTCACTCCAGTTATATGGCCG (hairpin A) (SEQ ID NO: 12). The hairpin templates were added to the reaction at the same concentration to reach a final concentration of 200 nM of DNA. […]

3′-OH nucleotides [2] = test: Purification of heated 3′-blocked nucleotides with different polymerases and temperatures, then 2×26 cycle sequencing on MINISEQ (FIG. 9); details: 30 minutes, hp template with 20 degenerated bases, nucleotides heated 5 hours at 55° C.
Procedure: FIG. 9 is a plot of phasing and prephasing during polymerization of 3′-blocked nucleotides that were purified to remove 3′-OH nucleotides using different polymerases and different temperatures. More specifically, similarly as for Example 1, an aqueous solution of 3′-blocked nucleotides blocked with azidomethyl groups was heated for 5 hours at 55° C. so as to convert a portion of the 3′-blocked nucleotides to 3′-OH nucleotides. The resulting aqueous mixture of 3′-blocked nucleotides and 3′-OH nucleotides was purified for 30 minutes in a manner such as described with reference to FIGS. 1A-1B and 3, using an hp oligomer template with 20 degenerated bases (meaning that at each position, one of the four bases could be incorporated; since this is random, each oligomer should have a different sequence) and different polymerases and different temperatures such as described further below. The purified 3′-blocked nucleotides then were polymerized using 2×26 cycle runs on the MINISEQ® sequencing-by-synthesis instrument (Illumina, Inc., San Diego Calif.) using the PhiX library as templates. The slope adjusted prephasing and phasing were measured for the purified 3′-blocked nucleotides, as well as for heated and unpurified 3′-blocked nucleotides and for unheated 3′-blocked nucleotides.
Different polymerases were used at different temperatures to determine their effect on phasing and prephasing. More specifically, the next data points to the right (“Vent polishing 60 C”) correspond to polymerization of 3′-blocked nucleotides that had been heated as indicated above and were purified using the Deep Vent polymerase at 60° C. […] From a comparison of performance of the different polymerases, it may be understood that using the Deep Vent polymerase at 60° C. provided similar phasing and prephasing as for the lower baseline “no stress” in which the 3′-blocked nucleotides were not heated. Additionally, it may be understood that using the Taq polymerase at the experimental temperatures provided even less prephasing than for the lower baseline “no stress” in which the 3′-blocked nucleotides were not heated. Accordingly, it may be understood that the Taq polymerase removed from solution not only the 3′-OH nucleotides that were generated using heating, but also at least some of the 3′-OH nucleotides that were present even without heating. Under the particular experimental conditions in this example, the Taq polymerase appeared to provide better performance than Deep Vent, and neither Deep Vent or Taq appeared to detrimentally influence phasing.

3′-OH nucleotides [3] = test: Purification with Taq polymerase at different temperatures and nucleotide concentrations, then 2×26 cycle sequencing on MISEQ (FIG. 11); details: 30 minutes, 0.5 mM or 1 mM nucleotides, control about 0.1%
Procedure: FIG. 11 is a plot of prephasing during polymerization of 3′-blocked nucleotides that were purified to remove 3′-OH nucleotides using different temperatures and concentrations of 3′-blocked nucleotides. Similarly as for Example 1, an aqueous solution of 3′-blocked nucleotides blocked with azidomethyl groups was heated for 5 hours at 55° C. so as to convert a portion of the 3′-blocked nucleotides to 3′-OH nucleotides. The resulting aqueous mixture of 3′-blocked nucleotides and 3′-OH nucleotides was purified for 30 minutes in a manner such as described with reference to FIGS. 1A-1B and 3, using 10× of an hp oligomer template with 20 degenerated bases (NNNNNNNNNNNNNNNNNNNN CGGCCATATAACTGGTAGCTTTTTTAAGCTACC AGTT AT ATG GCC G (SEQ ID NO. 1)), 10× of the Taq polymerase and either 0.5 mM or 1 mM of the heated 3′-blocked nucleotides, at a variety of temperatures. The purified 3′-blocked nucleotides then were polymerized using 2×26 cycle runs on the MISEQ® sequencing-by-synthesis instrument (Illumina, Inc., San Diego Calif.) using the PhiX library as templates. The normalized prephasing was measured for the purified 3′-blocked nucleotides, as well as for heated and unpurified Y-blocked nucleotides and for unheated Y-blocked nucleotides. […]

5′-NNN NCGGC CAT ATA ACT GGT AGCTT-3′ (DNA NNNNCGGCCATATAACTGGTAGCTT; degenerate-base DNA template for purifying nucleotides, chemistry not given here) [4N template]
R1 C150 phasing weight (3′-OH nucleotides [1]; 200 nM template): about 18.5%
R1 C150 prephasing weight (3′-OH nucleotides [1]; 200 nM template): about 21%

5′-NNNNNNNNNNNNNNNNNNNNCGGCCATATAACTGGTAGCTT-3′ [20N template]
R1 C150 phasing weight (3′-OH nucleotides [1]; 50 nM template): about 12%
R1 C150 prephasing weight (3′-OH nucleotides [1]; 50 nM template): about 24%
R1 C150 phasing weight (3′-OH nucleotides [1]; 200 nM template): about 18.5%
R1 C150 prephasing weight (3′-OH nucleotides [1]; 200 nM template): about 16.5%
R1 C150 phasing weight (3′-OH nucleotides [1]; 300 nM template): about 19%
R1 C150 prephasing weight (3′-OH nucleotides [1]; 300 nM template): about 13%
R1 C150 phasing weight (3′-OH nucleotides [1]; 500 nM template): about 23%
R1 C150 prephasing weight (3′-OH nucleotides [1]; 500 nM template): about 17%

5′-NNNNNNCGGCCATATAACTGGTAGCTT-3′ (degenerate-base DNA template, chemistry not given here) [6N template]
R1 C150 phasing weight (3′-OH nucleotides [1]; 200 nM template): about 15%
R1 C150 prephasing weight (3′-OH nucleotides [1]; 200 nM template): about 17.5%

Taq polymerase: Thermus aquaticus DNA polymerase I, thermostable polishing polymerase
normalized phasing (3′-OH nucleotides [2]; purified at 37° C.): about 0.13%
normalized prephasing (3′-OH nucleotides [2]; purified at 37° C.): about 0.09%
normalized phasing (3′-OH nucleotides [2]; purified at 45° C.): about 0.12%
normalized prephasing (3′-OH nucleotides [2]; purified at 45° C.): about 0.08%
normalized phasing (3′-OH nucleotides [2]; purified at 60° C.): about 0.12%
normalized prephasing (3′-OH nucleotides [2]; purified at 60° C.): about 0.09%
normalized prephasing (3′-OH nucleotides [3]; purified at 53° C.): significantly lower than the control
normalized prephasing (3′-OH nucleotides [3]; purified at 60° C.): significantly lower than the control

B1: NNNNNNNNNNNNNNNNNNNN CGGCCATATAACTGGTAGCTTTTTTAAGCTACC AGTT AT ATG GCC G (nucleic acid)
DNA: NNNNNNNNNNNNNNNNNNNNCGGCCATATAACTGGTAGCTTTTTTAAGCTACCAGTTATATGGCCG
modifications: hairpin template with 20 degenerate bases, chemistry not given here
R1 C150 phasing weight (3′-OH nucleotides [1]; 200 nM template): about 12%
R1 C150 prephasing weight (3′-OH nucleotides [1]; 200 nM template): about 16%
